Results from patent US20040214799A1, “Cancerous metastasis inhibitors containing carbacyclic phosphatidic acid derivatives” (priority 2001, published 2004).
Where “and” joins values, the source holds several entries; their conditions need not be identical. Equal entries are not always repeated.

Columns and labels:
[1] = General state and body weight of B16-F0 melanoma-bearing mice; type: in vivo
Protocol: (§1) The mixture was administered via the caudal vein. The number of grafted cells was 5×10^5 cells/body. The dose of the test substance was 0.001, 0.004 or 0.008 mg/body, and the dose of the positive control substance was 0.008 mg/body.
Observation period ranged from days 0 to 14 after the administration of the test substance. Life and death were confirmed every day during this period, and the general state was observed. Body weight measurement was performed twice a week.
The representative value of each test group was denoted as mean±standard deviation (mean±S.D.). Differences in mean values were examined as follows. The number of metastatic nodules was examined by Dunnett's multiple comparison test between the medium group and the cPA-19 group, and between the medium group and the cPA-20 group. The same was examined by the Student's T-test between the medium group and cPA-5 group. The number of metastatic lesions was examined by the Wilcoxon test using the medium group as a control. The number of animals having metastatic nodules or metastatic lesions was examined by Fisher's extract probability test using the medium group as a control. The significance levels were 1% and 5%.

[2] = system: Mouse malignant melanoma B16-F0; experiment: B16 melanoma hematogenous lung metastasis model; type: in vivo; conditions: 0.008 mg/body i.v. On Metastatic nodules, Abdominal cavity Adipose tissue: key: −: Absent; +: Present. On Metastatic nodules, Abdominal cavity Adrenal gland: key: −: Absent; +: Present. On Metastatic nodules, Abdominal cavity Diaphragm: key: −: Absent; +: Present. On Metastatic nodules, Abdominal cavity Kidney: key: −: Absent; +: Present. On Metastatic nodules, Abdominal cavity Ovary: key: −: Absent; +: Present. On Metastatic nodules, Abdominal cavity Spleen: key: −: Absent; +: Present. On Metastatic nodules, Thoracic cavity: key: −: Absent; +: Present. On Metastatic nodules, Tissue around glandual clitoris: key: −: Absent; +: Present.
Protocol: cPA-19 and cPA-20 were used as test substances. 0.1 w/v % BSA/PBS which was prepared by dissolving Albumin, Bovine [essentially Fatty Acid Free] (BSA, Lot No. 89H7604, Sigma chemical company) in Ca^2+ and Mg^2+ free PBS (pH 7.2), was used as a medium After preparation, the solution was sterilized by filtration using a filter (0.22 μm, Millipore). Preparation was performed when used. cPA-5 was used as a positive control substance.
A medium was added in a volume required for a test substance or a positive control substance. Dissolution was performed by ultrasonication, thereby preparing a 0.16 mg/mL solution. The 0.16 mg/mL solution containing a test substance was diluted with a medium, thereby preparing 0.08 and 0.02 mg/mL solutions. All mixtures were prepared when used.
Mice were purchased from CHARLES RIVER JAPAN. INC. The line employed herein was C57BL/6NCrj (sexuality: female). The number of animals kept in stock was 60, and the age of these animals when kept in stock was 4 weeks. […] The environmental conditions for the test system were as follows:
Mouse malignant melanoma B16-F0 was used as a tumor cell. The cell was purchased from Dainippon Pharmaceutical Co., Ltd.
Dulbecco's Modified Eagle's Media containing 10% feral bovine serum and kanamycin were used for culture. […] A medium was added to stop the action of trypsin while pipetting, thereby preparing a cell suspension. The suspension was diluted by one-tenth with a medium for culturing, followed by subculturing until it reached a volume sufficient for grafting.
A cell suspension was prepared by the same technique as the subculture method. Specifically, the cells were washed with a Ca^2+ and Mg^2+ free phosphate buffer [PBS(−)], and then harvested. The harvested cells were suspended in a 10 mL of PBS(−), thereby preparing a cell suspension. The number of cells in the cell suspension was measured to obtain the total cell number. 50 μL of the cell suspension, 100 μL of 0.4% trypan blue liquid and 100 μL of PBS(−) were mixed, and then viable count was measured. The survival rate of the cells was calculated from the viable count and total cell number.
Based on the body weight on the day of the administration of the test substance, mice were grouped into 8 test groups according to the stratified continuous randomization method as shown in Table 2 below.
as §1
On day 14 after the administration of the test substance, blood was collected from the posterior portion of the abdominal vena cava under isoflurane anesthesia. After the mice were sacrificed by blood-letting, the presence or absence of intrapleural and intraperitoneal metastatic nodules was confirmed. Lungs were extracted, and then fixed with a 10% neutral buffered formalin solution. The number of nodules resulting from lung metastasis was measured under a stereoscopic microscope (magnification: 10 times).
After the measurement of the number of nodules resulting from lung metastasis, samples were paraffin-embedded, and then thin sections were prepared. Hematoxylin eosinic-stained samples were prepared from these sections. The number of metastatic lesions in the certain portions of the left lobe and the posterior lobe was measured, and then the lesions were sorted by size. On the basis of the diameter (0.65 mm) of an object lens (×40), metastatic lesions with major diameters of less than 0.65 mm were classified as having a small size, and those with major diameters of between 0.65 mm or more and less than 1.30 mm were classified as having a large size. Furthermore, the degree of invasion of lymphocytes into metastatic lesions was confirmed qualitatively.
The representative value of each test group was denoted as mean±standard deviation (mean±S.D.). Differences in mean values were examined as follows.

MM1 cells = conditions: reported by Mukai et al., Int. J. Cancer 81, 918-922 (1999); cited from earlier work
[3] = autopsy day 14, individual animals

SMILES: CCCCCCCCCCCCCCCC(=O)OC[C@@H]1COP(=O)(O)O1 [cPA-5, Pal-cPA, reference compound]
- Body weight (g) day 0 ([1]; 0.008 mg/body i.v., day 0, mean ± S.D., N 6): 15.9 ± 0.6 g
- Body weight (g) day 4 ([1]; 0.008 mg/body i.v., day 4, mean ± S.D., N 6): 15.8 ± 0.9 g
- Body weight (g) day 7 ([1]; 0.008 mg/body i.v., day 7, mean ± S.D., N 6): 16.2 ± 1.0 g
- Body weight (g) day 11 ([1]; 0.008 mg/body i.v., day 11, mean ± S.D., N 6): 17.0 ± 0.8 g
- Body weight (g) day 14 ([1]; 0.008 mg/body i.v., day 14, mean ± S.D., N 6): 17.4 ± 1.0 g
- body weight compared with the medium group at each measurement (in words) ([1]; days 0, 4, 7, 11, 14): no significant difference
- action of decreasing the number of metastatic lesions (in words) [2]: no action of decreasing the number of metastatic lesions was observed
- metastasis / number of metastatic nodules in the lungs versus medium group (in words) [2]: a significant decrease was observed in the number of metastatic nodules
- invasion of lymphocytes into metastatic lesions observed in cases ([2]; animals with metastatic lesions): 2 out of 5
- Metastatic nodules, Abdominal cavity Adipose tissue [2, 3]: −
- Metastatic nodules, Abdominal cavity Adrenal gland [2, 3]: −
- Metastatic nodules, Abdominal cavity Diaphragm [2, 3]: −
- Metastatic nodules, Abdominal cavity Kidney [2, 3]: −
- Metastatic nodules, Abdominal cavity Ovary [2, 3]: −
- Metastatic nodules, Abdominal cavity Spleen [2, 3]: + (3×) and − (3×)
- Metastatic nodules, Thoracic cavity [2, 3]: −
- Metastatic nodules, Tissue around glandual clitoris [2, 3]: −
- cases with metastatic nodules in the spleen ([2]; autopsy, 6 mice): 3 case
- metastatic nodules in the thoracic cavity ([2]; autopsy, 6 mice): no metastatic nodules were observed
- Number of lung tumor nodules, Range (mininum-maximum) ([2]; day 14, N 6): 5-38
- Number of mice having lung tumor nodules ([2]; day 14, N 6): 6
- Number of lung tumor nodules ([2]; day 14, mean ± S.D., N 6): 21 ± 13$
- Number of mice having metastatic lesions ([2]; lung histopathology, N 6): 5
- Findings: Invasion of lymphocytes into melanoma metastatic lesion ([2]; lung histopathology, individual animals): − (3×) and ++ and +
- Number of metastatic lesions per section, Large size ([2]; major diameter 0.65 mm ≦ and <1.3 mm, mean ± S.D.): 0.8 ± 0.8
- Number of metastatic lesions per section, Small size ([2]; major diameter <0.65 mm, left lobe and posterior lobe, mean ± S.D.): 1.2 ± 0.8
- Number of metastatic lesions per section, Total ([2]; mean ± S.D.): 2.0 ± 1.3
- intracellular cAMP concentration of MM1 cells (in words) (MM1 cells): leads an increase of intracellular cAMP concentration
